In US6355799B1, “Substituted benzene compounds, process for their preparation, and herbicidal and defoliant compositions containing them” (ISK Americas Incorporated, priority 1997, dated 2002):

How the values were obtained:
Assay type in all cases: in vivo
[1] = test system: upland rice (Oryza sp., var. Tebonnet, RICE); assay: Post-emerge test, crop safety; settings: phytotoxicity rating 0-100 (0 no damage, 100 complete death), 14 days after application
In short: (§1)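 Applied at 15–1000 g ai/ha from acetone in 187 l/ha spray volume. Post-emergence applications included 0.25% v/v non-ionic surfactant and reached plants sown 8–21 days before. Pre-emergence applications were incorporated by surface watering. Efficacy or crop damage was rated on a 0–100 scale after 14 days.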

[2] = test system: field corn (Zea mays L., var. Dekalb 535, CORN); assay: Post-emerge test, crop safety; settings: phytotoxicity rating 0-100 (0 no damage, 100 complete death), 14 days after application
In short: as §1

[3] = test system: green foxtail (Setaria viridis, SETVI); assay: Post-emerge test, greenhouse herbicide activity screening; settings: phytotoxicity rating 0-100 (0 no damage, 100 complete death), 14 days after application
In short: (§2)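 Compounds in acetone were track-sprayed at 187 l/ha, 15–1000 g ai/ha, onto sandy loam pots. Pre-emerge seeds were sown one day before spraying, with surface watering afterwards. Post-emerge plants were at the 2–3 leaf stage and sprayed with 0.25% v/v non-ionic surfactant. Injury was rated 0–100 at 14 days.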

[4] = test system: velvetleaf (Abutilon theophrasti, ABUTH); assay: as above; settings: phytotoxicity rating 0-100 (0 no damage, 100 complete death), 14 days after application
In short: as §2

[5] = test system: large crabgrass (Digitaria sanguinalis, DIGSA); assay: as above; settings: phytotoxicity rating 0-100 (0 no damage, 100 complete death), 14 days after application
In short: as §2

[6] = test system: redroot pigweed (Amaranthus retroflexus, AMARE); assay: as above; settings: phytotoxicity rating 0-100 (0 no damage, 100 complete death), 14 days after application
In short: as §2

[7] = test system: barnyardgrass (Echinochloa crus-galli, ECHCG); assay: as above; settings: phytotoxicity rating 0-100 (0 no damage, 100 complete death), 14 days after application
In short: as §2

[8] = test system: johnsongrass (Sorghum halepense, SORHA); assay: as above; settings: phytotoxicity rating 0-100 (0 no damage, 100 complete death), 14 days after application
In short: as §2

[9] = test system: lambsquarters (Chenopodium album, CHEAL); assay: as above; settings: phytotoxicity rating 0-100 (0 no damage, 100 complete death), 14 days after application
In short: as §2

[10] = test system: ivyleaf morningglory (Ipomoea hederacea, IPOHE); assay: as above; settings: phytotoxicity rating 0-100 (0 no damage, 100 complete death), 14 days after application
In short: as §2

[11] = test system: green foxtail (Setaria viridis, SETVI); assay: Pre-emerge test, greenhouse herbicide activity screening; settings: pre-emerge, rated 14 days after application, 0 = no damage, 100 = complete death
In short: as §1

[12] = test system: velvetleaf (Abutilon theophrasti, ABUTH); assay: as above; settings: pre-emerge, rated 14 days after application, 0 = no damage, 100 = complete death
In short: as §1

[13] = test system: sicklepod (Cassia obtusifolia, CASOB); assay: as above; settings: pre-emerge, rated 14 days after application, 0 = no damage, 100 = complete death
In short: as §1

[14] = test system: large crabgrass (Digitaria sanguinalis, DIGSA); assay: as above; settings: pre-emerge, rated 14 days after application, 0 = no damage, 100 = complete death
In short: as §1

[15] = test system: barnyardgrass (Echinochloa crus-galli, ECHCG); assay: as above; settings: pre-emerge, rated 14 days after application, 0 = no damage, 100 = complete death
In short: as §1

[16] = test system: johnsongrass (Sorghum halepense, SORHA); assay: as above; settings: pre-emerge, rated 14 days after application, 0 = no damage, 100 = complete death
In short: as §1

[17] = test system: lambsquarters (Chenopodium album, CHEAL); assay: as above; settings: pre-emerge, rated 14 days after application, 0 = no damage, 100 = complete death
In short: as §1

[18] = test system: ivyleaf morningglory (Ipomoea hederacea, IPOHE); assay: as above; settings: pre-emerge, rated 14 days after application, 0 = no damage, 100 = complete death
In short: as §1

[19] = test system: upland rice (Oryza sp., var. Tebonnet, RICE); assay: Pre-emerge test, crop safety; settings: pre-emerge, rated 14 days after application, 0 = no damage, 100 = complete death
In short: (§3)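 Compounds in acetone were track-sprayed at 15-1000 g ai/ha (187 l/ha) on sandy loam pots: pre-emerge one day after seeding, post-emerge at 2-3 leaf stage with 0.25% v/v non-ionic surfactant. Phytotoxicity was rated 14 days later on a 0 (no damage) to 100 (complete death) scale.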

[20] = test system: field corn (Zea mays L., var. Dekalb 535, CORN); assay: Pre-emerge test, crop safety; settings: pre-emerge, rated 14 days after application, 0 = no damage, 100 = complete death
In short: as §3

[21] = test system: redroot pigweed (Amaranthus retroflexus, AMARE); assay: Pre-emerge test, greenhouse herbicide activity screening; settings: pre-emerge, rated 14 days after application, 0 = no damage, 100 = complete death
In short: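 Rating: 0–100 visual injury, 14 DAA. Application: acetone, 187 l/ha, 15–1000 g ai/ha, flat-fan track sprayer with nozzle 40–45 cm above soil or canopy. Post-emerge runs used 0.25% v/v surfactant on 2–3 leaf plants.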

## C=Cc1ccc(C(=O)Nc2c(OC)c(Cl)cc(F)c2-n2c(=O)cc(C(F)(F)F)n(C)c2=O)cc1 [2-31]
[1]; 63 g ai/ha
  Post-emerge Herbicidal Activity RICE (crop damage): 50
[1]; 250 g ai/ha
  Post-emerge Herbicidal Activity RICE (crop damage): 70
[2]; 63 g ai/ha
  Post-emerge Herbicidal Activity CORN (crop damage): 40
[2]; 250 g ai/ha
  Post-emerge Herbicidal Activity CORN (crop damage): 60
[3]; 63 g ai/ha
  Post-emerge Herbicidal Activity SETVI: 10
[3]; 250 g ai/ha
  Post-emerge Herbicidal Activity SETVI: 20
[4]; 63 g ai/ha
  Post-emerge Herbicidal Activity ABUTH: 100
[4]; 250 g ai/ha
  Post-emerge Herbicidal Activity ABUTH: 100
[5]; 63 g ai/ha
  Post-emerge Herbicidal Activity DIGSA: 0
[5]; 250 g ai/ha
  Post-emerge Herbicidal Activity DIGSA: 20
[6]; 63 g ai/ha
  Post-emerge Herbicidal Activity AMARE: 100
[6]; 250 g ai/ha
  Post-emerge Herbicidal Activity AMARE: 90
[7]; 63 g ai/ha
  Post-emerge Herbicidal Activity ECHCG: 10
[7]; 250 g ai/ha
  Post-emerge Herbicidal Activity ECHCG: 40
[8]; 63 g ai/ha
  Post-emerge Herbicidal Activity SORHA: 10
[8]; 250 g ai/ha
  Post-emerge Herbicidal Activity SORHA: 30
[9]; 63 g ai/ha
  Post-emerge Herbicidal Activity CHEAL: 80
[9]; 250 g ai/ha
  Post-emerge Herbicidal Activity CHEAL: 95
[10]; 63 g ai/ha
  Post-emerge Herbicidal Activity IPOHE: 90
[10]; 250 g ai/ha
  Post-emerge Herbicidal Activity IPOHE: 100
[11]; 63 g ai/ha
  Pre-emerge Herbicidal Activity SETVI (phytotoxicity rating, scale 0-100): 100
[11]; 250 g ai/ha
  Pre-emerge Herbicidal Activity SETVI (phytotoxicity rating, scale 0-100): 100
[12]; 63 g ai/ha
  Pre-emerge Herbicidal Activity ABUTH (phytotoxicity rating, scale 0-100): 100
[12]; 250 g ai/ha
  Pre-emerge Herbicidal Activity ABUTH (phytotoxicity rating, scale 0-100): 100
[13]; 63 g ai/ha
  Pre-emerge Herbicidal Activity CASOB (phytotoxicity rating, scale 0-100): 100
[13]; 250 g ai/ha
  Pre-emerge Herbicidal Activity CASOB (phytotoxicity rating, scale 0-100): 100
[14]; 63 g ai/ha
  Pre-emerge Herbicidal Activity DIGSA (phytotoxicity rating, scale 0-100): 90
[14]; 250 g ai/ha
  Pre-emerge Herbicidal Activity DIGSA (phytotoxicity rating, scale 0-100): 100
[15]; 63 g ai/ha
  Pre-emerge Herbicidal Activity ECHCG (phytotoxicity rating, scale 0-100): 40
[15]; 250 g ai/ha
  Pre-emerge Herbicidal Activity ECHCG (phytotoxicity rating, scale 0-100): 100
[16]; 63 g ai/ha
  Pre-emerge Herbicidal Activity SORHA (phytotoxicity rating, scale 0-100): 60
[16]; 250 g ai/ha
  Pre-emerge Herbicidal Activity SORHA (phytotoxicity rating, scale 0-100): 85
[17]; 63 g ai/ha
  Pre-emerge Herbicidal Activity CHEAL (phytotoxicity rating, scale 0-100): 100
[17]; 250 g ai/ha
  Pre-emerge Herbicidal Activity CHEAL (phytotoxicity rating, scale 0-100): 100
[18]; 63 g ai/ha
  Pre-emerge Herbicidal Activity IPOHE (phytotoxicity rating, scale 0-100): 100
[18]; 250 g ai/ha
  Pre-emerge Herbicidal Activity IPOHE (phytotoxicity rating, scale 0-100): 100
[19]; 63 g ai/ha
  Pre-emerge crop damage RICE (phytotoxicity rating, scale 0-100): 40
[19]; 250 g ai/ha
  Pre-emerge crop damage RICE (phytotoxicity rating, scale 0-100): 90
[20]; 63 g ai/ha
  Pre-emerge crop damage CORN (phytotoxicity rating, scale 0-100): 20
[20]; 250 g ai/ha
  Pre-emerge crop damage CORN (phytotoxicity rating, scale 0-100): 40
[21]; 63 g ai/ha
  Pre-emerge Herbicidal Activity AMARE (phytotoxicity rating, scale 0-100): 100
[21]; 250 g ai/ha
  Pre-emerge Herbicidal Activity AMARE (phytotoxicity rating, scale 0-100): 100
